Assay results taken from paper PMC11391413 (Chemical Science, 2024).
No end group written: not given here.

Target: T1, full-length GRB2, KD1 (NSH3) (Homo sapiens, UniProt P62993)
T1 construct: further corroborated by our ITC analysis of the full-length GRB2; His6 (N, cleaved yes); TEV protease cleavage site (N, cleaved yes); made in house; host or cells: Escherichia coli BL21 (DE3) pLysS
Assay: ITC of full-length GRB2 with SOS1 PRMs, KD1
Type: binding
Conditions: not given

Kd [µM] | Molecule
71.5 ± 24.2 | CC(C)C[C@H](NC(=O)[C@H](CCCCN)NC(=O)[C@@H]1CCCN1)C(=O)N1CCC[C@H]1C(=O)N1CCC[C@H]1C(=O)N[C@@H](CCCCN)C(=O)N[C@H](C(=O)N[C@@H](Cc1ccc(O)cc1)C(=O)N[C@@H](CCCCN)C(=O)N[C@@H](CCCNC(=N)N)C(=O)N[C@@H](CCC(=O)O)C(=O)N[C@@H](Cc1c[nH]cn1)C(=O)O)[C@@H](C)O [S10]
15.9 ± 1.5 | DSPPAIPPRQPT [S5]
40.1 ± 6.5 | ESPPLLPPREPV [S6]
35.6 ± 4.2 | IAGPPVPPRQST [S9]
65.1 ± 23.7 | PKPLPRFPKK [S2]
123 ± 18.6 | PSPHGTRRHLPSPP [S8]

Target: NSH3 domain of full-length GRB2 (Homo sapiens, UniProt P62993)
Assay: NMR titration (1H-15N HSQC chemical shift perturbation) of 15N-labelled full-length GRB2 with SOS1 PRMs, KD1
Conditions: read-out: K D (μM) from full-length GRB2, K D1 (NSH3), global fit of residues with maximum CSPs over 0.03 ppm, independent two-site binding model, GRB2 approx. 200 to 270 μM, 20 mM sodium phosphate, 25 °C, bootstrap 1000 iterations
Procedure: Models with two binding sites basically require a total of four dissociation constants (KD1–KD4). The two-site independent binding model equates KD3 and KD4 with KD2 and KD1, respectively. In contrast, the two-site cooperative binding model (two-site dependent model) differentiates the four dissociation constants, with the assumption that KD3 is modulated by another ligand binding to KD2, as a function of KD2 and a modulation factor α. KD4 is then calculated from KD1 and KD2, as shown in the equation provided in the figure (the detailed models and theory are described in Materials and methods). […] The calculations were performed using only residues showing the maximum CSPs over 0.03 ppm.
2D ^1H–^15N HSQC spectra were measured at each titration point. Chemical shift differences, Δ, were analysed by Δ = ((ΔH)^2 + (ΔN/5)^2)^1/2, where ΔH and ΔN are the differences in ppm for the backbone amide ^1H and ^15N chemical shifts between the two conditions. 1 ppm corresponds to 600.13 Hz for ^1H and 60.81 Hz for ^15N.
The dissociation constants for each residue were calculated by non-linear regression analysis with the equation for the single state model:[33] […]
In all models, the non-linear least-squares fitting was performed by the Levenberg–Marquardt algorithm. The precision of the model parameters was assessed by conducting the bootstrap resampling on the residuals of the regression model. […]

Kd [µM] | Molecule
483 ± 45.7 | CC(C)C[C@H](NC(=O)[C@H](CCCCN)NC(=O)[C@@H]1CCCN1)C(=O)N1CCC[C@H]1C(=O)N1CCC[C@H]1C(=O)N[C@@H](CCCCN)C(=O)N[C@H](C(=O)N[C@@H](Cc1ccc(O)cc1)C(=O)N[C@@H](CCCCN)C(=O)N[C@@H](CCCNC(=N)N)C(=O)N[C@@H](CCC(=O)O)C(=O)N[C@@H](Cc1c[nH]cn1)C(=O)O)[C@@H](C)O [S10]
